Reference: US20250003953A1, “Methods and Model Systems for Assessing Therapeutic Properties of Candidate Agents and Related Computer Readable Media and Systems” (The Regents of the University of California, priority 2021, published 2025)

Tests used:
Assay type in all cases: cell-based, human
[1] = test system: GENEVA cell pool of cell lines; test: GENEVA cell pool drug sensitivity by relative cell counts from single-cell RNA sequencing; conditions: pre/post drug treatment relative cell counts from GENEVA pools
Text: This example is directed at discovery of genetic drivers of sensitivity to a drug compound by way of simultaneous inference of phenotype from a GENEVA cell pool. Long-duration growth balanced cell pools were created and subjected to drug treatment. After assignment to patient of origin and drug treatment condition using genetic demultiplexing using the method as described in Example 5 and sample hashing demultiplexing as described in Example 6, datasets were obtained with discrete numbers of cells in each drug treatment condition as evidenced in FIG. 2A,B,C,D,E,F. The relative number of viable cells remaining in each drug treatment condition for each cell type was counted and this drug sensitivity information was used as the response variable for a linear model. […]
The number of cells in each drug condition were counted according to the origin cell type. […]
fitness for cell type Ci against Drug Dx based on proportional representation was calculated as: […]
For each drug or vehicle Dx, the total number of cells was counted in each condition, the geometric mean of the total cell counts was calculated, and the total number of cells in each condition was divided by the geometric mean of the cell counts to obtain a normalization ratio. […]
For each of these fitness calculations, the relative fitness was calculated as: […]

[2] = test system: KRAS.G12C lines in GENEVA pools; test: GENEVA pool transcriptome changes in cells surviving drug treatment
Method: Long-time course GENEVA pools were created to understand how ARS1620 achieved durable tumor regression in human cells. A seven day drug treatment regimen was conducted and transcriptome changes in surviving cells were analyzed.
For each cell line, single cell datasets were divided into two sub-datasets: vehicle treated and drug treated. Differential expression was calculated between two single-cell datasets using a two-sample t-test. A differential expression score was obtained for each gene from two-sample t-test output. All cell lines were repeated until done and all differential expression scores for genes were saved into aggregated differential expression tables by cell line. Cells were grouped according to their phenotypic sensitivity to the tested compound. For tested compounds, the genetic driver of the compound sensitivity was discovered as described previously herein. Using the genetic driver, cell lines were classified by presence or absence of the driver into two categories, sensitive vs non-sensitive. The differential expression matrix was grouped into sensitive and insensitive cell lines. z-scores for genes within each cell line were calculated, genes were grouped by gene sets from biological geneset databases curated from scientific literature, and two sample T-tests with grouped z-scores were performed. First, all differential expression scores were normalized to the same scale by z-score within each cell line. […] Summary statistics from each gene test were saved and the z-score difference was calculated. The biological mechanism of action of the molecule of interest was determined by rank ordering the median z score results from each geneset to determine the relative upregulation or downregulation of genesets in response to the compound.
Among this group of genes were FTH1 and FTL, the two components of the Ferritin Complex, which is responsible for sequestration of labile free iron. Using a lipid peroxidation live cell probe, lipid peroxidation—one of the hallmark phenotypes of ferroptosis—was measured in response to ARS-1620 treatment.

[3] = test system: H2030 (KRAS.G12C); test: Mitochondrial content with Mitotracker Deep Red FM in long term drug tolerant line; conditions: 30 day treatment, 10 uM; drug-persistent vs parental H2030
[4] = test system: H2030 (KRAS.G12C) cells; test: Seahorse assay measuring oxygen consumption; conditions: 2 h after treatment
[5] = test system: KRAS.G12C cell lines in a cell pool; test: GENEVA pool gene set expression after drug, in vitro; conditions: post-drug treatment
Text: The GENEVA datasets were compared where GENEVA pools were drugged with the KRAS.G12C inhibitor ARS1620, conducted both in vitro and in vivo. Specifically, the in vitro data were compared against the in vivo data to look for differences and similarities attributable to the context of the model systems used. […] As a validation study, a combination therapy multi-arm in vivo mouse study was designed to test the efficacy of an EMT inhibitor, Galunisertib in combination with ARS1620.
For in vivo and in vitro datasets, we combined the median z score results determined in Example 8 and t-test results, respectively, were combined on a paired geneset by geneset basis. The combined zscore results table from both in vivo and in vitro was then used to calculate an “in vivo Specificity Score” as follows:
For each geneset, “in vivo Specificity Score”=[(in vivo median zscore)−(in vitro median zscore)]/mean([log 10 (in vivo pvalue), log 10 (in vitro pvalue)]

## C=CC(=O)N1CCN(c2ncnc3c(F)c(-c4c(O)cccc4F)c(Cl)cc23)CC1 [ARS1620]
[1]
  relative sensitivity of individual cell types (most sensitive cell lines): KRAS.G12C mutant harboring
[2]; after drug treatment, within each cell line of the pool
  percentage of mitochondrial reads in surviving cell subpopulations: significantly lower percentage of mitochondrial reads relative to overall reads
[2]; long-term treatment, across KRAS.G12C lines
  expression of anti-ferroptotic genes in surviving cells: Consistently upregulated genes across cell lines were found to be involved in an anti-ferroptotic response mechanism
[2]; seven day drug treatment regimen
  expression of mitochondrially encoded genes in surviving cells: Mitochondrially encoded genes were downregulated
[3]
  mitochondrial content after long term treatment: mitochondria are significantly ablated
[4]
  oxygen consumption / mitochondrial respiration: significant difference in functional oxygen consumption
[5]
  endothelial-mesenchymal transition hallmark gene expression signature: showed no difference in vitro
